According to patent US20080200405A1, “Drug Resistance Reversal In Neoplastic Disease” (priority 2007, published 2008):
Where two headings read alike, the source gives them in different places. Marks after values point to notes of the source that are not given here.

Experiments:
TNFα = assay: Measurement of LPS Induced-TNFα in THP-1 Cells; type: cell-based, human
Lipid peroxidation = Lipid peroxidation inhibition (method of Ohkawa); type: biochemical; conditions: for Lipid Peroxidation Inhibition, % Inhibition: 10 uM
Angiogenesis in CAM = assay: Neovascularization on the CAM (Inhibition of Angiogenesis in CAM); type: in vivo, chicken; conditions: for inhibition in vivo at 0.03 mg: Gallus gallus
Protocol: In vivo neovascularization was examined by the method previously described by Auerbach et al. (J. Dev. Biol. 41:391-394 (1974)). Ten-day old chicken embryos were purchased from Spafas, Inc. (Preston, Conn.) and were incubated at 37° C. with 55% relative humidity. In the dark, with the aid of a candling lamp, a small hole was punctured in the shell concealing the air sac with a hypodermic needle. A second hole was punctured in the shell on the broadside of the egg directly over an […] portion of the embryonic membrane, as observed during candling. An artificial air sac was created beneath the second hole by applying gentle vacuum to the first hole using a small rubber squeeze bulb. The vacuum caused the chorioallantoic membrane (CAM) to separate from the shell. A window, approximately 1.0 cm^2, was cut in the shell over the dropped CAM with the use of a small crafts grinding wheel (Dremel, Division of Emerson Electric Company Racine, Wis.). The window allowed direct access to the underlying CAM. A pro-angiogenic agent was added to induce new blood vessel branches on the CAM of 10-day old embryos. […] Louis, Mo.) in a solution (95% ethanol and water). The disks were subsequently air dried under sterile conditions. The disks were then suspended in PBS (Phosphate Buffered Saline) and placed on growing CAMs. […] For inducing angiogenesis, sterile filter disks were saturated with bFGF (1 μg/ml) (Life Technologies, Gaithersburg, Md.) or other pro-angiogenesis factors and control disks were saturated with PBS without Calcium and Magnesium. Control disks were saturated with PBS without Calcium and Magnesium. Using sterile forceps one filter/CAM was placed from the window. The window was sealed with Highland brand transparent tape. After 24-48 hr, 10-25 ul of test agent was injected intravenously or added topically into the CAM membrane. Eight-Ten eggs/treatment group were used. CAM tissue directly beneath filter disk was harvested from embryos treated 48 hours prior with compound or control. Tissues were washed three times with PBS. Sections were placed in a 35-mm petri dish (Nalge Nunc, Rochester, N.Y.) and examined under a SV6 stereomicroscope (Karl Zeiss, Thornwood, N.Y.) at 50× magnification. […] Digital images of CAM sections from Petri dish were collected using a 3-CCD color video camera system (Toshiba America, New York, N.Y.). These images were analyzed using Image-Pro Plus software (Media Cybernetics, Silver Spring, Md.). The number of branch points in blood vessels within the circular region superimposed to the area of a filter disk was counted for each section. […] Tissues were washed three times with PBS. Sections were placed in a 35-mm Petri dish (Nalge Nunc; Rochester, N.Y.) and were examined under a SV6 stereomicroscope (Karl Zeiss; Thornwood, N.Y.) at 50× magnification. Digital images of CAM sections adjacent to filters were collected using a 3-CCD color video camera system (Toshiba America; New York, N.Y.) and analyzed with the Image-Pro Plus software (Media Cybernetics; Silver Spring, Md.). The number of vessel branch points contained in a circular region equal to the area of a filter disk was counted for each section. Percent inhibition data are expressed as the quotient of the experimental value minus the negative control value divided by the difference between the positive control value and the negative control value. One image was counted in each CAM preparation, and findings from eight CAM preparations were analyzed for each treatment condition. In addition, each experiment was performed three times. The resulting angiogenesis index is the mean ±SEM (Standard Error of Measurement) of new branch points in each set of treatment. Statistical analysis of blood vessel branching patterns are performed by 1-way analysis of variance (ANOVA) comparing experimental with corresponding control groups.

[1] = tested on: Doxorubicin resistant SaOS2 cells; assay: Cancer cell viability (MTT) in the presence or absence of doxorubicin; type: cell-based, human; conditions: compound 50 ug/mL, 3 days
[2] = tested on: angiogenesis in the CAM model; assay: Effect of TEMPOL-H on the anti-angiogenesis efficacy of ranibizumab in the CAM model; type: in vivo, chicken; conditions: for Mean % Inhibition +/− SEM, With TEMPOL-H (30 ug): P < 0.01; for Mean % Inhibition +/− SEM, Without TEMPOL-H: n = 6-8
Protocol: FIGS. 3A and 3B depict the effect of TEMPOL-H (OT-674) on the anti-angiogenesis efficacy of ranibizumab (LUCENTIS™) in the CAM model. FIG. 3A depicts 30 ug of TEMPOL-H and 1 ng of ranibizumab. FIG. […]
Ranibizumab (Genentech, South San Francisco, Calif.) is a monoclonal antibody fragment that binds to VEGF-A. It is anti-angiogenic and is approved to treat the wet type of age-related macular degeneration. The effect of the co-administration of TEMPOL-H (also referred to as OT-674) with Ranibizumab is depicted in Table 9. This effect is also depicted in FIGS. 3A and 3B.

[3] = tested on: Human whole blood clot formation
Protocol: TEG: Human whole blood (±drugs) was added to the cylindrical cuvette (“cup”). […] The cup oscillates 4°45′ ( 1/12 radian) in either direction every 4.5 seconds, with a 1-second mid-cycle stationary period, resulting in a frequency of 0.1 Hz and a maximal shear rate of 0.1 per second. The pin was suspended by a torsion wire that acts as a torque transducer. […] The torque experienced by the pin (relative to the oscillation of the cup) was plotted as a function of time (Forsythe, S. A. M. S. K. M. S. (2000): “Comparative In Vitro Efficacy of Different Platelet Glycoprotein IIb/IIIa Antagonists on Platelet-Mediated Clot Strength Induced by Tissue Factor With Use of Thromboelastography.” Arteriosclerosis, Thrombosis, and Vascular Biology 20: 1162).
(Data represent mean ±SD, n=6 (blood form normal healthy volunteers), *P<0.01 as compared to control)

[4] = Homo sapiens, THP-1, read-out: TNFalpha IC50
[5] = Homo sapiens, THP-1, compound 10 uM, 5 ng/mL LPS, read-out: Mean Percent Inhibition of TNF-alpha using 5 ng/mL LPS
[6] = TEG, human whole blood, Ranibizumab 1 ng/cup, Comp. 4 0 uM, *P<0.01 vs control

Molecule	IC50 (TNFα; [4]) [µM]	inhibition in vivo at 0.03 mg (Angiogenesis in CAM; 30 ug) [%]	Mean OD (×10^−3), MTT viability ([1]; Dox. 10^−6 M (+))	Mean OD (×10^−3), MTT viability ([1]; absence of Dox. (−))	melting point	also measured
CC1(C)COCC(C)(C)N1O.Cl [Compound 20, 3,3,5,5-1-hydroxy-tetramethylmorpholine hydrogen chloride]	≥ 100	90.2	107.5 ×10^−3	515.50 ×10^−3	184.6 °C (dec.)	Lipid Peroxidation Inhibition, % Inhibition (Lipid peroxidation): 90.2%
CC1(C)CC(Cl)CC(C)(C)N1O.Cl [Compound 21, 4-chloro-1-hydroxy-2,2,6,6-tetramethylpiperidine hydrogen chloride]	21.7	94.1	99.25 ×10^−3	492.75 ×10^−3	201.8 °C (dec.)	
CC1(C)CC(C#N)CC(C)(C)N1O.Cl [Compound 12, 4-cyano-1-hydroxyl-2,2,6,6-tetramethylpiperidine hydrogen chloride]	21.5	92.1	287.25 ×10^−3	539.25 ×10^−3	186 °C (dec.)	inhibition at 10 µM (TNFα; [5]): 35%
CC1(C)C=C(C(N)=O)C(C)(C)N1O [Compound 23, 2,5-dihydro-2,2,5,5-tetramethyl-1H-pyrrole-3-carboxamide-1-hydroxy]			416.25 ×10^−3	1432.50 ×10^−3		IC50 (TNFα; read-out: TNFalpha IC50): 87.4 µM; % inhibition of angiogenesis in CAM at 30 ug (Angiogenesis in CAM; 30 ug): 48.8
CC1(C)c2ccc(C(=O)O)cc2C(C)(C)N1O.Cl [Compound 15, 1,1,3,3-tetramethylisoindolin-2-hydroxyl-5-carboxylic acid hydrogen chloride]		94.6			225.5 °C (dec.)	inhibition at 10 µM (TNFα; [5]): 67 ± 7%; % Lipid Peroxidation inhibition (at 1 uM) (Lipid peroxidation; 1 uM): 88.0%; Lipid Peroxidation Inhibition, % Inhibition (Lipid peroxidation): 94.6%
COc1cc2c(cc1O)CC[C@@H]1[C@@H]2CC[C@]2(C)[C@@H](O)CC[C@@H]12 [2-methoxyestradiol, reference compound]						Lipid Peroxidation Inhibition, % Inhibition (Lipid peroxidation): 92.3%; Inhibition of Angiogenesis in CAM, % Inhibition (Angiogenesis in CAM; 30 ug): 92.3%
CC1(C)CC(Oc2nsnc2Cl)CC(C)(C)N1O [Compound 13, 4-(4-chloro-1,2,5-thiadiazol-3-yloxyl)-1-hydroxyl-2,2,6,6-tetramethylpiperidine hydrogen chloride]	16.4	93.4				inhibition at 10 µM (TNFα; [5]): 36%
CC1(C)CC(NC(=O)C2CC2)C(C)(C)N1O.Cl (centres unmarked) [Compound 38, N-(1-hydroxy-2,2,5,5-tetramethylpyrrolidin-3-yl)cyclopropanecarboxamide hydrogen chloride]	≥ 100		378.50 ×10^−3	1202.75 ×10^−3		% inhibition of angiogenesis in CAM at 30 ug (Angiogenesis in CAM; 30 ug): 62.8
O=C1O[C@H]([C@@H](O)CO)C(O)=C1O [Vitamin C, reference compound]						Inhibition of Angiogenesis in CAM, % Inhibition (Angiogenesis in CAM; 300 ug): 15 ± 7%
CC1(C)CC(Oc2nsnc2OC2CC(C)(C)N(O)C(C)(C)C2)CC(C)(C)N1O [Compound 14, 1-hydroxyl-4-(4-(2,2,6,6-tetramethylpiperidin-1-hydroxyl-4-yloxy)-1,2,5-thiadiazol-3-yloxy)-2,2,6,6-tetramethylpiperidine bis-hydrogen chloride]		95.2				inhibition at 10 µM (TNFα; Homo sapiens, THP-1, read-out: Mean Percent Inhibition of TNF-alpha using 5 ng/mL LPS): 63 ± 1%; IC50 (TNFα; Homo sapiens, THP-1, read-out: TNFalpha IC50 (uM)): 11.4 µM
Vitamin E [reference compound]						Inhibition of Angiogenesis in CAM, % Inhibition (Angiogenesis in CAM; 300 ug): 22 ± 6%
Ranibizumab: a monoclonal antibody fragment that binds to VEGF-A						Mean % Inhibition +/− SEM, With TEMPOL-H (30 ug) ([2]; VEGF + Ranibizumab (1 ug) with TEMPOL-H (30 ug)): 54 +/− 9* %; Mean % Inhibition +/− SEM, Without TEMPOL-H ([2]; VEGF + Ranibizumab (1 ug)): 18 +/− 5%; Mean % Inhibition +/− SEM, With TEMPOL-H (30 ug) ([2]; VEGF + Ranibizumab (10 ug) with TEMPOL-H (30 ug)): 69 +/− 6* %; Mean % Inhibition +/− SEM, Without TEMPOL-H ([2]; VEGF + Ranibizumab (10 ug)): 33 +/− 6%; Mean % Inhibition +/− SEM, With TEMPOL-H (30 ug) ([2]; VEGF + Ranibizumab (100 ug) with TEMPOL-H (30 ug)): 83 +/− 4* %; Mean % Inhibition +/− SEM, Without TEMPOL-H ([2]; VEGF + Ranibizumab (100 ug)): 53 +/− 8%; MA in comparison to native blood [3]: approximately six times larger MA; initiation of clot formation in comparison to native blood [3]: approximately two to three fold faster; Clot Strength - MA [3, 6]: 28.5 ± 3.4* mm; Time to Clot Initiation R [3, 6]: 6.9 ± 1.4* min
